Numbered stars: 1 amine (or outer) side, 2 acyl side, 3 side chain; on linkers, the order of the positions; unused ones are H or OH. Bridge positions count the residues as written; N and C are the ends. Square brackets hold non-standard residues; d marks the D form. Peptide text beside a SMILES is read from it. * marks the point of attachment. Tartaroyl(2R,3R-(OAc)2) = CC(=O)O[C@@H](C(=O)[*:1])[C@@H](OC(C)=O)C(=O)[*:2]; Gly(N-(4-CH2NH-benzyl)) = O=C(CN(Cc1ccc(CN[*:3])cc1)[*:1])[*:2]; Phe(4-CF3) = N[C@@H](Cc1ccc(C(F)(F)F)cc1)C(=O)O; Phe(4-COOH) = N[C@@H](Cc1ccc(C(=O)O)cc1)C(=O)O; Bip = N[C@@H](Cc1ccc(-c2ccccc2)cc1)C(=O)O; dPhe(3-Cl) = N[C@H](Cc1cccc(Cl)c1)C(=O)O; Phe(4-NH2) = Nc1ccc(C[C@H](N)C(=O)O)cc1; His(τ-Me) = Cn1cnc(C[C@H](N)C(=O)O)c1; d2Nal = N[C@H](Cc1ccc2ccccc2c1)C(=O)O; d(hPhe) = N[C@H](CCc1ccccc1)C(=O)O; hPhe = N[C@@H](CCc1ccccc1)C(=O)O; 4Pal = N[C@@H](Cc1ccncc1)C(=O)O; d2Thi = N[C@H](Cc1cccs1)C(=O)O; Suc = O=C(CCC(=O)[*:2])[*:1]; OtBu = CC(C)(C)O*
molecular target: T1, TNFα / TNFα receptor (TNFα R1/Fc) (Homo sapiens, UniProt P01375); assay: Inhibition of binding of TNFα to the TNFα receptor (plate ELISA competition); conditions: Activity (IC50, inhibition of TNFα binding to TNFα R1/Fc), Table 2
T1 construct: purchased R&D Systems
Method in brief: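 Plates were coated with TNFα at 15 nM. Test compound and 8.33 nM receptor-Fc (PBST, 2% DMSO) were first mixed in solution for 30 min at room temperature, then transferred to the plates for another 30 min. Competition was read by absorbance at 450 nm after HRP anti-human IgG Fc detection with TMB.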

T1 sequence (P01375 77-233 limits assumed, species assumed): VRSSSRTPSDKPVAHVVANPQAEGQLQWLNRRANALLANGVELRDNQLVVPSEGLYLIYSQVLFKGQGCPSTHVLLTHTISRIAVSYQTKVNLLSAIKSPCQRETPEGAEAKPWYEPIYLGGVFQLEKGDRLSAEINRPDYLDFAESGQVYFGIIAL

SMILES | IC50
C[C@@H](C(=O)O)N(C)C(=O)[C@@H]1Cc2ccc(cc2)OCC(=O)N[C@@H](Cc2cccs2)C(=O)N[C@H](Cc2ccc(-c3ccccc3)cc2)C(=O)N[C@@H](CCc2ccccc2)C(=O)N1 [Compound 575] | < 10 µM

same assay, conditions: Table 2; read-out: Activity (IC50, inhibition of TNFα binding to TNFα R1/Fc)

SMILES | IC50
C[C@H]1NC(=O)[C@H](Cc2ccc(-c3ccccc3)cc2)NC(=O)[C@@H](Cc2cccs2)NC(=O)CCC(=O)Nc2ccc(cc2)C[C@@H](C(=O)O)NC1=O [Compound 44] ([d2Thi][Bip][dA][Phe(4-NH2)]-OH; linker N-4 via Suc) | > 100 µM
O=C(O)CCCNC(=O)[C@@H]1Cc2ccc(cc2)OCC(=O)N[C@@H](Cc2ccc(-c3ccncc3)cc2)C(=O)N[C@H](Cc2ccc(-c3ccccc3)cc2)C(=O)N[C@@H](CCc2ccccc2)C(=O)N1 [Compound 580] | < 10 µM
O=C1CCC(=O)N[C@H](Cc2cccs2)C(=O)N[C@@H](CCc2ccccc2)C(=O)N[C@H](Cc2ccccc2)C(=O)N[C@H](C(=O)O)Cc2ccc(cc2)N1 [Compound 91] ([d2Thi][hPhe][dF][Phe(4-NH2)]-OH; linker N-4 via Suc) | > 100 µM
CC(C)(C)OC(=O)CC[C@@H]1NC(=O)[C@H](Cc2ccc(-c3ccccc3)cc2)NC(=O)[C@@H](Cc2cccs2)NC(=O)CCC(=O)Nc2ccc(cc2)C[C@@H](C(=O)O)NC1=O [Compound 66] ([d2Thi][Bip]E(OtBu)[Phe(4-NH2)]-OH; linker N-4 via Suc) | > 100 µM
O=C(O)CN1Cc2ccc(cc2)CNC(=O)CCC(=O)N[C@H](Cc2cccs2)C(=O)N[C@@H](Cc2ccc(-c3ccccc3)cc2)C(=O)N[C@H](Cc2ccccc2)C1=O [Compound 186] ([d2Thi][Bip][dF][Gly(N-(4-CH2NH-benzyl))]-OH; linker N-4 via Suc) | 30 to 100 µM
O=C1CCC(=O)N[C@H](Cc2cccs2)C(=O)N[C@@H](Cc2ccc(-c3ccccc3)cc2)C(=O)N[C@H](Cc2ccccc2)C(=O)N[C@H](C(=O)N2CCC[C@@H]2C(=O)O)Cc2ccc(cc2)N1 [Compound 200] ([d2Thi][Bip][dF][Phe(4-NH2)][dP]-OH; linker N-4 via Suc) | 30 to 100 µM
O=C(O)[C@@H]1Cc2ccc(cc2)NC(=O)[C@H](O)[C@@H](O)C(=O)N[C@H](Cc2cccs2)C(=O)N[C@@H](Cc2ccc(-c3ccccc3)cc2)C(=O)N[C@H](Cc2ccc(Cl)cc2Cl)C(=O)N1 [Compound 287] | 10 to 30 µM
C[C@@H](NC(=O)[C@@H]1Cc2ccc(cc2)OCC(=O)N[C@@H](Cc2ccncc2)C(=O)N[C@H](Cc2ccc(-c3ccccc3)cc2)C(=O)N[C@@H](CCc2ccccc2)C(=O)N1)C(=O)O [Compound 557] | < 10 µM
O=C1CCC(=O)N[C@H](Cc2cccs2)C(=O)N[C@@H](Cc2ccc(-c3ccccc3)cc2)C(=O)N[C@@H](Cc2ccncc2)C(=O)N[C@H](C(=O)O)Cc2ccc(cc2)N1 [Compound 49] ([d2Thi][Bip][4Pal][Phe(4-NH2)]-OH; linker N-4 via Suc) | > 100 µM
O=C1CCC(=O)N[C@H](Cc2cccs2)C(=O)N[C@@H](Cc2ccc(-c3ccccc3)cc2)C(=O)N[C@H](Cc2ccccc2)C(=O)Nc2ccc(cc2)C[C@@H](C(=O)O)N1 [Compound 549] | > 100 µM
O=C1CCC(=O)N[C@H](Cc2cccc(Cl)c2)C(=O)N[C@@H](Cc2ccc(C(F)(F)F)cc2)C(=O)N[C@H](Cc2ccccc2)C(=O)N[C@H](C(=O)O)Cc2ccc(cc2)N1 [Compound 133] ([dPhe(3-Cl)][Phe(4-CF3)][dF][Phe(4-NH2)]-OH; linker N-4 via Suc) | 30 to 100 µM
O=C1COc2ccc(cc2)C[C@@H](C(=O)N[C@@H](CO)C(=O)O)NC(=O)[C@H](Cc2ccc(O)cc2)NC(=O)[C@@H](Cc2ccc(-c3ccccc3)cc2)NC(=O)[C@H](Cc2cccs2)N1 [Compound 563] | 30 to 100 µM
O=C1CCC(=O)N[C@H](Cc2cccs2)C(=O)N[C@@H](Cc2ccc(-c3ccccc3)cc2)C(=O)N[C@H](Cc2ccccc2)C(=O)N[C@H](C(=O)O)CCCCN1 [Compound 42] ([d2Thi][Bip][dF]K-OH; linker N-4 via Suc) | > 100 µM
CC(C)(C)Oc1ccc(C[C@@H]2NC(=O)COc3ccc(cc3)C[C@@H](C(=O)O)NC(=O)[C@H](CCc3ccccc3)NC(=O)[C@@H](Cc3ccc(-c4ccccc4)cc3)NC2=O)cc1 [Compound 514] | < 10 µM
O=C1N[C@H](Cc2ccco2)C(=O)N[C@@H](C(=O)O)Cc2ccc(cc2)NC(=O)[C@H](O)[C@@H](O)C(=O)N[C@H](Cc2cccs2)C(=O)N[C@H]1Cc1ccc(Br)cc1 [Compound 155] | > 100 µM
O=C1COc2ccc(cc2)C[C@H](C(=O)O)NC(=O)[C@H](Cc2ccccc2)NC(=O)[C@@H](Cc2ccc(-c3ccccc3)cc2)NC(=O)[C@H](Cc2cccs2)N1 [Compound 675] | > 100 µM
O=C1COc2ccc(cc2)C[C@@H](C(=O)O)NC(=O)[C@H](CCc2ccccc2)NC(=O)[C@@H](Cc2ccc(-c3ccccc3)cc2)NC(=O)[C@H](Cc2ccc(C(F)(F)F)cc2)N1 [Compound 691] | < 10 µM

More lines, now with the values ahead:

IC50 | SMILES
10 to 30 µM | O=C1COc2ccc(cc2)C[C@@H](C(=O)NCCO)NC(=O)[C@@H](CCc2ccccc2)NC(=O)[C@H](Cc2ccc(-c3ccccc3)cc2)NC(=O)[C@@H](Cc2cccs2)N1 [Compound 322]
< 10 µM | O=C1COc2ccc(cc2)C[C@@H](C(=O)O)NC(=O)[C@H](CCc2ccccc2)NC(=O)[C@@H](Cc2ccc(-c3ccccc3)cc2)NC(=O)[C@H](CCCc2ccccc2)N1 [Compound 509]
< 10 µM | C[C@H](NC(=O)[C@@H]1Cc2ccc(cc2)OCC(=O)N[C@@H](Cc2ccc(-c3ccccc3)cc2)C(=O)N[C@H](Cc2ccc(-c3ccccc3)cc2)C(=O)N[C@@H](CCc2ccccc2)C(=O)N1)C(=O)O [Compound 572]
> 100 µM | O=C1CCC(=O)N[C@H](Cc2cccs2)C(=O)N[C@@H](Cc2ccc(-c3ccccc3)cc2)C(=O)N[C@@H](Cc2ccc(O)cc2)C(=O)N[C@H](C(=O)O)Cc2ccc(cc2)N1 [Compound 58] ([d2Thi][Bip]Y[Phe(4-NH2)]-OH; linker N-4 via Suc)
> 100 µM | Cn1cnc(C[C@@H]2NC(=O)[C@@H](Cc3cccs3)NC(=O)CCC(=O)Nc3ccc(cc3)C[C@@H](C(=O)O)NC(=O)[C@@H](Cc3ccccc3)NC2=O)c1 [Compound 100] ([d2Thi][His(τ-Me)][dF][Phe(4-NH2)]-OH; linker N-4 via Suc)
10 to 30 µM | O=C(Nc1ccc(-c2ccc(C[C@@H]3NC(=O)[C@@H](Cc4cccs4)NC(=O)[C@H](O)[C@@H](O)C(=O)Nc4ccc(cc4)C[C@@H](C(=O)O)NC(=O)[C@@H](Cc4ccccc4)NC3=O)cc2)cc1)OCc1ccccc1 [Compound 336]
30 to 100 µM | O=C(O)[C@@H]1Cc2ccc(cc2)NC(=O)[C@H](O)[C@@H](O)C(=O)N[C@H](Cc2cccs2)C(=O)N[C@@H](Cc2ccc(OCc3ccccc3)cc2)C(=O)N[C@H](Cc2ccccc2)C(=O)N1 [Compound 177]
< 10 µM | O=C1COc2ccc(cc2)C[C@@H](C(=O)O)NC(=O)[C@H](CCc2ccccc2)NC(=O)[C@@H](Cc2ccc(-c3ccccc3)cc2)NC(=O)[C@H](Cc2ccccc2C(F)(F)F)N1 [Compound 689]
> 100 µM | O=C1COc2ccc(cc2)C[C@H](C(=O)O)NC(=O)[C@H](Cc2c[nH]c3ccccc23)NC(=O)[C@@H](Cc2ccc(-c3ccccc3)cc2)NC(=O)[C@H](Cc2ccncc2)N1 [Compound 732]
< 10 µM | O=C1COc2ccc(cc2)C[C@H](C(=O)O)NC(=O)[C@H](CCc2ccccc2)NC(=O)[C@@H](Cc2ccc(-c3ccccc3)cc2)NC(=O)[C@H](Cc2c[nH]c3ccccc23)N1 [Compound 730]
> 100 µM | O=C1CCC(=O)N[C@H](Cc2ccccc2)C(=O)N[C@@H](Cc2ccc(-c3ccccc3)cc2)C(=O)N[C@H](CCc2ccccc2)C(=O)N[C@H](C(=O)N[C@H](Cc2ccccc2)C(=O)O)Cc2ccc(cc2)N1 [Compound 455] ([dF][Bip][d(hPhe)][Phe(4-NH2)][dF]-OH; linker N-4 via Suc)
> 100 µM | O=C1COc2ccc(cc2)C[C@@H](C(=O)O)NC(=O)[C@@H](Cc2ccccc2)NC(=O)[C@@H](Cc2ccc(-c3ccccc3)cc2)NC(=O)[C@@H](Cc2cccs2)N1 [Compound 209]
> 100 µM | O=C1CCC(=O)N[C@H](Cc2ccc3ccccc3c2)C(=O)N[C@@H](Cc2ccc(C(F)(F)F)cc2)C(=O)N[C@H](Cc2ccccc2)C(=O)N[C@H](C(=O)O)Cc2ccc(cc2)N1 [Compound 143] ([d2Nal][Phe(4-CF3)][dF][Phe(4-NH2)]-OH; linker N-4 via Suc)
> 100 µM | O=C1COc2ccc(cc2)C[C@@H](C(=O)O)NC(=O)[C@@H](Cc2ccc(-c3ccccc3)cc2)NC(=O)[C@H](Cc2ccc(-c3ccccc3)cc2)NC(=O)[C@@H](Cc2cccs2)N1 [Compound 530]
30 to 100 µM | CC(=O)O[C@H]1C(=O)Nc2ccc(cc2)C[C@@H](C(=O)O)NC(=O)[C@@H](Cc2ccccc2)NC(=O)[C@H](Cc2ccc(-c3ccccc3)cc2)NC(=O)[C@@H](Cc2cccs2)NC(=O)[C@@H]1OC(C)=O [Compound 223] ([d2Thi][Bip][dF][Phe(4-NH2)]-OH; linker N-4 via Tartaroyl(2R,3R-(OAc)2))
> 100 µM | CN(C)C(=O)[C@@H]1Cc2ccc(cc2)NC(=O)CCC(=O)N[C@H](CCc2ccccc2)C(=O)N[C@@H](Cc2ccc(-c3ccccc3)cc2)C(=O)N[C@H](Cc2ccccc2)C(=O)N1 [Compound 370] ([d(hPhe)][Bip][dF][Phe(4-NH2)]-NMe2; linker N-4 via Suc)
> 100 µM | O=C1CNC(=O)c2ccc(cc2)C[C@@H](C(=O)O)NC(=O)[C@@H](Cc2ccccc2)NC(=O)[C@H](Cc2ccc(-c3ccccc3)cc2)NC(=O)[C@@H](CCc2ccccc2)N1 [Compound 247] (G[d(hPhe)][Bip][dF][Phe(4-COOH)]-OH; lactam N-5)
< 10 µM | CC(C)(C)c1ccc(C[C@@H]2NC(=O)[C@@H](Cc3ccc(-c4ccccc4)cc3)NC(=O)[C@H](Cc3cccs3)NC(=O)COc3ccc(cc3)C[C@@H](C(=O)O)NC2=O)cc1 [Compound 635]
> 100 µM | O=C(O)CN1Cc2cccc(c2)CNC(=O)CCC(=O)N[C@H](Cc2cccs2)C(=O)N[C@@H](Cc2ccc(-c3ccccc3)cc2)C(=O)N[C@H](Cc2ccccc2)C1=O [Compound 7]

Reference: patent publication US8338565B2, “Macrocyclic compounds for inhibition of tumor necrosis factor alpha” (Ensemble Therapeutics Corporation, priority 2008, dated 2012)
